The numbers were not newly measured in patent publication US11234935B2, “Method of inducing satiety” (PERORA GMBH, priority 2015, dated 2022), which cites them from elsewhere.

For the data set the following is noted: rat feeding study; independent from intake.

Take `CCCCCCCCCCCCCCCCCC(=O)OCC(COC(=O)CCCCCCCCCCCCCCCCC)OC(=O)CCCCCCCCCCCCCCCCC` [tristearin]: the “true digestibility of stearic acid from tristearin” value is given as 0.15 g/g.
